pIC50: −log10 of the molar value.
System: PI3-K in BT20 cells (phosphorylation of AKT at serine 473)
Test: PI3-Kα Cellular Assay (AKT Ser473 phosphorylation ELISA in BT20 cells)
Type: cell-based, human
Settings: Homo sapiens, BT-20, pAKT Ser473 ELISA, 1 hour incubation
Experimental: Compounds of the present invention were evaluated for potency against PI3-K using a cellular assay as follows.
Healthy growing human breast cancer cells BT20 (PI3K mutated) are used for the assay. BT20 cells are grown in 10% FBS+GLN (1:100)+PS (1:100)+1 mM Sodium Pyruvate+0.1 mM Sodium Bicarbonate+Non-Essential Amino Acids Solution (1:100) MEM medium (MEM+all). […] The cells are re-suspended in 10% FBS MEM all and are centrifuged down at 1400 rpm for 5 minutes. The cells are re-suspended in 0.5% FBS MEM all and are counted on a cell counter. The cells are seeded at 25,000 cells/well in volume of 100 μL/well in 0.5% FBS MEM all in a 96 well flat-bottom plate. The negative control wells receive only 100 μL of 0.5% FBS MEM all medium without cells. The plate is incubated overnight in a cell culture incubator with 5% CO2 at 37° C.
On day 2, testing compounds are prepared in 0.5% FBS MEM all medium and serially diluted at 1:3 for 11 test concentrations. Each concentration of the compounds is tested in duplicate. The compound solutions are added at 25 μL/well to the corresponded wells in cell plate, and 25 μL/well of the vehicle (0.5% DMSO in 0.5% FBS MEM all) is added to the negative control wells (no cells) and the positive control wells (cells without compounds). The plate is incubated for 1 hour in a cell culture incubator with 5% CO2 at 37° C. After 1 hour of incubation, the medium is removed, 100 μL/well of cell lysis buffer is added into the cell plate, and shake for 15 minutes at room temperature. […] After 1 hour, empty the contents of the wells, wash the plate 4 times with the wash buffer, and add 100 μL of TMB substrate solution (catalog #T0440, Sigma) into each well, and incubate with gentle shaking at room temperature for […]. After 15 minutes of color development, add 100 μL of stop solution (1N hydrochloric acid) to each well, and read the plate at 450 nm on ELISA plate reader.

| Compound | pIC50 |
| --- | --- |
| COc1ccc(-c2cc3c(C)nc(N)nc3n(CC(C)(C)O)c2=O)cn1 [Compound 169, 2-amino-8-(2-hydroxy-2-methylpropyl)-6-(6-methoxypyridin-3-yl)-4-methylpyrido[2,3-d]pyrimidin-7(8H)-one] | 6.47 |
| Cc1nc(N)nc2c1cc(-c1cnc3[nH]ccc3c1)c(=O)n2CC(C)(C)O [Compound 172, 2-amino-8-(2-hydroxy-2-methylpropyl)-4-methyl-6-(1H-pyrrolo[2,3-b]pyridin-5-yl)pyrido[2,3-d]pyrimidin-7(8H)-one] | 6.94 |
| COc1ccc(-c2cc3c(C)nc(N)nc3n([C@H]3CC[C@@H](O)CC3)c2=O)cn1 [Compound 174, 2-amino-8-(cis-4-hydroxycyclohexyl)-6-(6-methoxypyridin-3-yl)-4-methylpyrido[2,3-d]pyrimidin-7(8H)-one] | 7.72 |
| COc1ccc(-c2cc3c(C)nc(N)nc3n(C3CCOCC3)c2=O)cn1 [Compound 200, 2-amino-6-(6-methoxypyridin-3-yl)-4-methyl-8-(tetrahydro-2H-pyran-4-yl)pyrido[2,3-d]pyrimidin-7(8H)-one] | 7.15 |
| Cc1nc(N)nc2c1cc(-c1cn[nH]c1)c(=O)n2CC1CCOC1 (stereo not shown) [Compound 219, 2-amino-4-methyl-6-(1H-pyrazol-4-yl)-8-((tetrahydrofuran-3-yl)methyl)pyrido[2,3-d]pyrimidin-7(8H)-one] | 7.02 |
| COc1ccc(-c2cc3c(C)nc(N)nc3n(CC3CCOC3)c2=O)cn1 (stereo not shown) [Compound 220, 2-amino-6-(6-methoxypyridin-3-yl)-4-methyl-8-((tetrahydrofuran-3-yl)methyl)pyrido[2,3-d]pyrimidin-7(8H)-one] | 6.84 |
| Cc1nc(N)nc2c1cc(-c1cn[nH]c1)c(=O)n2CC1CCCO1 (stereo not shown) [Compound 223, 2-amino-4-methyl-6-(1H-pyrazol-4-yl)-8-((tetrahydrofuran-2-yl)methyl)pyrido[2,3-d]pyrimidin-7(8H)-one] | 6.60 |
| Cc1nc(N)nc2c1cc(-c1cnn(C)c1)c(=O)n2C1CCCC1 [Compound 235, 2-Amino-8-cyclopentyl-4-methyl-6-(1-methyl-1H-pyrazol-yl)-8H-pyrido[2,3-d]pyrimidin-7-one] | 6.21 |
| CNc1nc(C)c2cc(-c3ccc(OC)nc3)c(=O)n(CCN)c2n1 [Compound 239, 8-(2-Amino-ethyl)-6-(6-methoxy-pyridin-3-yl)-4-methyl-2-methylamino-8H-pyrido[2,3-d]pyrimidin-7-one] | 5.90 |
| COc1ccc(-c2cc3c(C)nc(N)nc3n(CC(C)C)c2=O)cn1 [Compound 241, 2-Amino-8-isobutyl-6-(6-methoxy-pyridin-3-yl)-4-methyl-8H-pyrido[2,3-d]pyrimidin-7-one] | 7.10 |
| Cc1nc(N)nc2c1cc(-c1ccc3c(c1)OCCO3)c(=O)n2[C@H]1CC[C@H](O)CC1 [Compound 261, 2-amino-6-(2,3-dihydro-1,4-benzodioxin-6-yl)-8-(trans-4-hydroxycylohexyl)-4-methylpyrido[23-d]pyrimidin-7(8H)-one] | 7.46 |
| COc1ncc(-c2cc3c(C)nc(N)nc3n([C@H]3CC[C@@H](O)CC3)c2=O)cn1 [Compound 272, 2-amino-8-(cis-4-hydroxycyclohexyl)-6-(2-methoxypyrimidin-5-yl)-4-methylpyrido[2,3-d]pyrimidin-7(8H)-one] | 7.36 |
| COc1ncc(-c2cc3c(C)nc(N)nc3n([C@H]3CC[C@H](O)CC3)c2=O)cn1 [Compound 273, 2-amino-8-(trans-4-hydroxycyclohexyl)-6-(2-methoxypyrimidin-5-yl)-4-methylpyrido[2,3-d]pyrimidin-7(8H)-one] | 7.60 |
| CNc1nc(C)c2cc(C(=O)Nc3ccccn3)c(=O)n(C3CCCC3)c2n1 [Compound 282, 8-cyclopentyl-4-methyl-2-(methylamino)-7-oxo-N-pyridin-2-yl-7,8-dihydropyrido[2,3-d]pyrimidine-6-carboxamide] | 6.58 |
| Cc1nc(N)nc2c1cc(-c1cnc3ccccc3c1)c(=O)n2[C@H]1CC[C@H](OCCO)CC1 [Compound 289, 2-amino-8-(trans-4-(2-hydroxyethoxy)cyclohexyl]-4-methyl-6-quinolin-3-ylpyrido[2,3-d]pyrimidin-7(8H)-one] | 7.53 |
| Cc1nc(N)nc2c1cc(-c1cnc3ccccc3c1)c(=O)n2[C@H]1CC[C@@H](OCCO)CC1 [Compound 295, 2-amino-8-[cis-4-(2-hydroxyethoxy)cyclohexyl]-4-methyl-6-quinolin-3-ylpyrido[2,3-d]pyrimidin-7(8H)-one] | 7.02 |
| Cc1nc(N)nc2c1cc(-c1ccn[nH]1)c(=O)n2[C@H]1CC[C@H](OCCO)CC1 [Compound 301, 2-amino-8-[trans-4-(2-hydroxyethoxy)cyclohexyl]-4-methyl-6-(1H-pyrazol-3-yl)pyrido[2,3-d]pyrimidin-7(8H)-one] | 6.86 |
| COc1ccc(-c2cc3c(C)nc(N)nc3n([C@H]3CC[C@@H](OCC(N)=O)CC3)c2=O)cn1 [Compound 303] | 7.69 |
| COc1ncc(-c2cc3c(C)nc(N)nc3n([C@H]3CC[C@@H](OCC(N)=O)CC3)c2=O)cn1 [Compound 307, 2-({cis-4-(2-amino-6-(2-methoxypyrimidin-5-yl)-4-methyl-7-oxopyrido[2,3-d]pyrimidin-8(7H)-yl]cyclohexyl}oxy)acetamide] | 7.08 |
| COc1ccc(-c2cc3c(C)nc(N)nc3n([C@H]3CC[C@H](OCC(N)=O)CC3)c2=O)cn1 [Compound 309, 2-({trans-4-[2-amino-6-(6-methoxypyridin-3-yl)-4-methyl-7-oxopyrido[2,3-d]pyrimidin-8(7H)-yl]cyclohexyl}oxy)acetamide] | 7.71 |
| COc1ncc(-c2cc3c(C)nc(N)nc3n([C@H]3CC[C@H](OCC(N)=O)CC3)c2=O)cn1 [Compound 311, 2-({trans-4-[2-amino-6-(2-methoxypyrimidin-5-yl)-4-methyl-7-oxopyrido[2,3-d]pyrimidin-8(7H)-yl]cyclohexyl}oxy)acetamide] | 7.28 |

Stronger by pIC50, values ahead:

| pIC50 | Compound |
| --- | --- |
| 7.74 | COc1ccc(-c2cc3c(C)nc(N)nc3n([C@H]3CC[C@@H](OCCO)CC3)c2=O)cn1 [Compound 285, 2-Amino-8-(cis-4-(2-hydroxyethoxy)cyclohexyl)-6-(6-methoxypyridin-3-yl)-4-methylpyrido[2,3-d]pyrimidin-7(8H)-one] |
| 7.75 | Cc1nc(N)nc2c1cc(-c1ccc(N(C)C)nc1)c(=O)n2[C@H]1CC[C@@H](O)CC1 [Compound 181, 2-amino-6-[6-(dimethylamino)pyridin-3-yl]-8-(cis-4-hydroxycyclohexyl)-4-methylpyrido[2,3-d]pyrimidin-7(8H)-one] |
| 7.88 | COc1ccc(-c2cc3c(C)nc(N)nc3n([C@H]3CC[C@H](OCCO)CC3)c2=O)cn1 [Compound 286, 2-amino-8-[trans-4-(2-hydroxyethoxy)cyclohexyl]-6-(6-methoxypyridin-3-yl)-4-methylpyrido[2,3-d]pyrimidin-7(8H)-one] |
| 8.10 | COc1ncc(-c2cc3c(C)nc(N)nc3n([C@H]3CC[C@@H](O)CC3)c2=O)cc1F [Compound 177] |
| 8.10 | COc1ncc(-c2cc3c(C)nc(N)nc3n(C3CCCC3)c2=O)cc1F [Compound 254, 2-amino-8-cyclopentyl-6-(5-fluoro-6-methoxypyridin-3-yl)-4-methylpyrido[23-d]pyrimidin-7(8H)-one] |
| 8.11 | CNc1nc(C)c2cc(-c3ccc(OC)nc3)c(=O)n([C@H]3CC[C@H](O)CC3)c2n1 [Compound 274, 8-(trans-4-hydroxycyclohexyl)-6-(6-methoxypyridin-3-yl)-4-methyl-2-(methylamino)pyrido[2,3-d]pyrimidin-7(8H)-one] |
| 8.33 | CO[C@H]1CC[C@H](n2c(=O)c(-c3cn[nH]c3)cc3c(C)nc(N)nc32)CC1 [Compound 183, 2-amino-8-(trans-4-methoxycyclohexyl)-4-methyl-6-(1H-pyrazol-4-yl)pyrido[2,3-d]pyrimidin-7(8H)-one] |
| 8.33 | Cc1nc(N)nc2c1cc(-c1cn[nH]c1)c(=O)n2C1CCC(=O)CC1 [Compound 176, 2-amino-4-methyl-8-(4-oxocyclohexyl)-6-(1H-pyrazol-4-yl)pyrido[2,3-d]pyrimidin-7(8H)-one] |
| 8.47 | COc1ncc(-c2cc3c(C)nc(N)nc3n([C@H]3CC[C@H](OC)CC3)c2=O)cc1F [Compound 180, 2-amino-6-(5-fluoro-6-methoxypyridin-3-yl)-8-(trans-4-methoxycyclohexyl)-4-methylpyrido[2,3-d]pyrimidin-7(8H)-one] |
| 8.51 | COc1ncc(-c2cc3c(C)nc(N)nc3n([C@H]3CC[C@H](O)CC3)c2=O)cc1F [Compound 191, 2-amino-6-[5-fluoro-6-methoxypyridin-3-yl)-8-(trans-4-hydroxycyclohexyl)-4-methylpyrido[2,3-d]pyrimidin-7(8H)-one] |

Source: patent US8633204B2 (Pfizer Inc., priority 2006, dated 2014)
